# In paper PMC4373826, “Antiviral Effect of Methylated Flavonol Isorhamnetin against Influenza” (PLoS ONE, 2015):
# Assays:
# [1] = test system: influenza A/PR/8/34 (H1N1); experiment: microbe, parasite or virus in culture; conditions: MDCK
# [2] = Cytotoxicity assay (EZ-Cytox) in MDCK cells; format: cell-based, canine; conditions: dog; MDCK cells, 48 hr
# Protocol: (§1) To determine the 50% cytotoxic concentration (CC50) for each of the tested flavonoid compounds, MDCK cells were seeded onto 96-well plates (NUNC, Penfield, NY, USA) at a density of 1 × 10^4 cells per well and incubated overnight for 80% confluence. MDCK cells were washed twice with PBS and the culture medium was replaced with medium containing serially diluted flavonoids (concentrations from 10μM up to 300 μM) for 48 hr at 37°C in a 5% CO2atmosphere. After the incubation period, the flavonoid-containing media was replaced with new media containing 10% EZ-Cytox (Daeil Lab Service, Seoul, South Korea), and the cells were incubated in the dark for 3 hr at 37°C in a 5% CO2 atmosphere. The optical density was measured at 480 nm using an x-Mark spectrophotometer (Bio-Rad, Hercules, CA, USA). Cytotoxicity was estimated by comparing the cell survival rate of the flavonoids-treated cells and the DMSO-treated cells with the control (virus-untreated) cells. The control cell values were arbitrarily set as the 100% survival rate. The treated cells values were normalized to the control cell values. The calculation of CC50 was carried out as described in detail in S1 Text.
# (§2) The 50% cytotoxic concentration (CC50) was calculated according to the following equation:
# (§3) Cytotoxicity (%) = [100-(ODt/ODs)] x100
# (§4) ODt: The optical density (OD) of cells treated with the tested flavonoids.
# (§5) ODs: The OD of cells treated with the control solvent (0.2 % DMSO).
# (§6) After obtaining the results, we calculated the concentration that induces 50% cell death using the following equation:
# (§7) (X2 - X1) X (50-Y1) / (Y2 - Y1) + X1. Where, X1 represents the lower concentration used in this experiment, while X2 represents the higher concentration. Y1 represents the mean of the percentage of the viable cells at X1 concentration. On the other hand, Y2 represents the mean of the percentage of the viable cells at X2 concentration.”
# MDCK cells = experiment: Cytotoxicity assay (EZ-Cytox) in MDCK cells; format: cell-based, canine; conditions: especially at 50μM and 100μM
# Protocol: as §1, §2, §3, §4, §5, §6, §7
# [3] = test system: influenza A/PR/8/34 (H1N1); experiment: in vitro; conditions: dog, SI (selective index, CC50/EC50), Post-treatment
# [4] = test system: influenza A/PR/8/34 (H1N1); format: cell-based, influenza A virus; conditions: post-treatment 48 hr
# [5] = test system: influenza A/PR/8/34 (H1N1); conditions: post-treatment
SMILES,"EC50 ([1]; 48 h, Post-treatment) [µM]",CC50 at 48 h [2] [µM],cell viability of MDCK cells (MDCK cells),selectivity ratio [3],virus titer in HA assay (virus yield reduction) [4],influenza virus-induced cell death [5],"EC50 ([1]; 0.5 h, Co-treatment (0.5 hr)) [µM]","EC50 ([1]; 1 h, Co-treatment (1 hr)) [µM]","EC50 ([1]; 2 h, Co-treatment (2 hr)) [µM]",EC50 ([1]; Pre-treatment (1 hr)) [µM],EC50 ([1]; Pre-treatment (12 hr)) [µM],EC50 ([1]; Pre-treatment (24 hr)) [µM]
"COc1ccc(-c2cc(=O)c3c(O)cc(O)cc3o2)cc1O [Diosmetin, diosmetin]",124,–,–,–,–,–,–,–,–,–,–,–
"O=C1C[C@@H](c2ccc(O)c(O)c2)Oc2cc(O)cc(O)c21 [Eriodictyol, eriodictyol]",115,256,significant decrease,2,–,–,–,–,–,–,–,–
"O=c1c(O)c(-c2ccc(O)cc2)oc2cc(O)cc(O)c12 [Kaempferol, kaempferol]",35,245,–,7,significantly decreased,apparent suppression,–,–,–,–,–,–
"O=c1c(O)c(-c2ccc(O)c(O)c2)oc2cc(O)cc(O)c12 [Quercetin, quercetin]",30,> 265,–,> 9,significantly decreased,apparent suppression,106,62,43,78,85,98
